Here are results for two compounds from patent US8008333B2, “Single dose aromatase inhibitor for treating infertility” (Ares Trading S.A., priority 2001, dated 2011).

In one data set the test system is women with PCOS. Conditions: PCOS group, cited from earlier work.
For data set [1] the following is noted: in vivo; cited from earlier work.
The test system of data set [2] is infertile patients (PCOS, unexplained infertility).
Excerpt: HCG 10,000 IU was given to trigger ovulation. Follicular development was monitored by transvaginal ultrasound and hormonal assays of estrogen and LH.
Data set [3] deals with low responders during ovarian stimulation. The data set is described as follows: letrozole with FSH stimulation in low responders. Type of data set: in vivo, human.
For data set [4], the system named is ovulatory women with unexplained infertility and anovulatory women with PCOS. Kind of data set: letrozole in conjunction with FSH for controlled ovarian super ovulation. Format: in vivo, human.
In another data set the test system is ovulatory women. As to conditions: ovulatory group, one patient; cited from earlier work.
Data set [5] has as its system endometrium of normal women. Conditions: reduction in glandular density, increase in vacuolated cells; cited from earlier work.

Each structure is given as a SMILES string. Structures can show the parent of a compound that is named as a salt. Where two headings read alike, the source gives them in different places.

As to `N#Cc1ccc(C(c2ccc(C#N)cc2)n2cncn2)cc1` [letrozole], the pregnancy with women with PCOS (3 patients) is recorded as 25%. Further, in the data set with women with PCOS (9 of 12 cycles), the ovulation is reported as 75%. Also, in data set [1], the half-life result is “around two”. Besides, in data set [2] (Letrozole 5 days cycle), the “Endometrial thickness on hCG day” value is 0.9 (0.2) cm, the “Estradiol on hCG day” value is recorded as 919 (782) pmol/L, the Estradiol/mature follicle is reported as 462 (257) pmol/L and the “Follicles >1.5 cm” value is reported as 1.9 (0.2). In data set [2] (Letrozole 5 days cycle), the LH is 18.2 (16.2) IU/L. Further, in data set [2] (Letrozole single-dose cycles), the “Endometrial thickness on hCG day” value is reported as 0.9 (0.11) cm, the “Estradiol on hCG day” value is recorded as 831 (359) pmol/L, the Estradiol/mature follicle was 390 (74) pmol/L and the “Follicles >1.5 cm” value is 2.29 (1.3). Besides, the LH in data set [2] (Letrozole single-dose cycles) was 19.1 (12.7) IU/L. In data set [2] (single 20 mg dose on day 3, out of the 9 single-dose treatment cycles), the ovulation stood at 8 cycles. The pregnancy achieved entry in data set [2] (single 20 mg dose on day 3, seven patients) was “one”. Also, the “characteristics of the single dose treatment cycles versus the 5-day treatment cycles” value in data set [2] (single 20 mg dose vs […] for 5 days) is “no significant difference”. Besides, the “ovarian response to FSH stimulation” value in data set [3] is reported as “improvement”. Moreover, the “FSH dose required for achievement of adequate ovarian super ovulation” value in data set [4] is “significantly lower”. Besides, the pregnancy in the data set with ovulatory women is on record as 10%.

On to `CCN(CC)CCOc1ccc(C(=C(Cl)c2ccccc2)c2ccccc2)cc1` [CC, clomiphene citrate], for which the “effect on the endometrium” value in data set [5] is recorded as “deleterious effect on the endometrium”.
